Consider 1 molecule from US10913732B2, “Furoxans as therapies for neurodegenerative disorders” (The University of Toledo, priority 2016, dated 2021).

The subject of the experiment is PC12 cells. Description: In vitro neuroprotection against oxygen glucose deprivation (OGD), MTT viability readout. It counts as cell-based. Conditions: OGD 90 min, reoxygenation, furoxan 1, 10 or 25 μM, 24 hr. The protocol: FIGS. 3A-3C: Neuroprotection (FIG. 3A), MTT treatment was used to assess cell viability (FIG. 3B), and pCREB modulation (FIG. 3C) of furoxan compounds. Neuroprotection assay workflow: expose PC12 cells to oxygen glucose deprivation (OGD) for 90 min→reoxygenate and add furoxan (1, 10, or 25 μM)→incubate for 24 hr→MTT readout of viability. Data represented as mean and s.e.m. (n=3). *=p<0.05, **=p<0.01, ***=p<0.001 compared to vehicle control using one way ANOVA analysis with Dunnett's post-hoc test. Red dashed line indicates threshold of vehicle effects. For pCREB modulation, 31b (25 μM) was examined (PC-12 cells, 48 hr incubation) in the following: without insult, with OGD, L-NAME.
It has been shown that furoxans are protective against oxygen glucose deprivation (OGD), a commonly used cellular model of ischemic stroke. PC12 cells were submitted to OGD for 90 minutes followed by reoxygenation and treatment with varying concentrations of selected embodiments of compounds of Formula I (indicated in FIG. 3A). After 24 hr, MTT treatment was used to assess cell viability (FIG. 3B). […] It has been shown previously that 4-N-oxides release NO at a much slower rate than corresponding 2-N-oxides.

Entries after “also recorded” stand apart in the source; their conditions may differ.

Take `CC1CCN(Cc2no[n+]([O-])c2-c2ccc(F)cc2)CC1` [31b]: the “Neuroprotection against OGD (cell viability by MTT)” value was “concentration dependent protection; also recorded: outperform the corresponding 2-N-oxides”.
